Experiment [1] concerns the target T1, β-gal II (Bifidobacterium breve, UniProt D4BR09).
T1 construct: gene BIFBRE_04539; full length, C-terminal His6 tag kept (pET-21a), E. coli T7 Express with GroEL/GroES, IMAC; calculated 116,594 Da; homodimer 211 kDa; GH2; N-terminus from primer MNTTDDQ, C-terminus before tag DVNLELI
The experiment in a line: oNPG hydrolysis, o-nitrophenol release at […] nm, nonlinear regression. The class given is biochemical. The note with it: competitive vs oNPG; 50 mM sodium phosphate pH 6.5, 30°C.

Experiment [2] deals with T2, β-gal I (Bifidobacterium breve, UniProt D4BLG2).
T2 construct: gene BIFBRE_02894; full length, C-terminal His6 tag kept (pET-21a), E. coli T7 Express with GroEL/GroES, IMAC; calculated 116,127 Da; homodimer 220 kDa; GH2; N-terminus from primer MQGKAKT, C-terminus before tag DVTLELI
Described as above. As to conditions: competitive vs oNPG; 50 mM sodium phosphate pH 6.5, 30°C. The class given is biochemical.

T1 sequence (D4BR09 entry or part of it): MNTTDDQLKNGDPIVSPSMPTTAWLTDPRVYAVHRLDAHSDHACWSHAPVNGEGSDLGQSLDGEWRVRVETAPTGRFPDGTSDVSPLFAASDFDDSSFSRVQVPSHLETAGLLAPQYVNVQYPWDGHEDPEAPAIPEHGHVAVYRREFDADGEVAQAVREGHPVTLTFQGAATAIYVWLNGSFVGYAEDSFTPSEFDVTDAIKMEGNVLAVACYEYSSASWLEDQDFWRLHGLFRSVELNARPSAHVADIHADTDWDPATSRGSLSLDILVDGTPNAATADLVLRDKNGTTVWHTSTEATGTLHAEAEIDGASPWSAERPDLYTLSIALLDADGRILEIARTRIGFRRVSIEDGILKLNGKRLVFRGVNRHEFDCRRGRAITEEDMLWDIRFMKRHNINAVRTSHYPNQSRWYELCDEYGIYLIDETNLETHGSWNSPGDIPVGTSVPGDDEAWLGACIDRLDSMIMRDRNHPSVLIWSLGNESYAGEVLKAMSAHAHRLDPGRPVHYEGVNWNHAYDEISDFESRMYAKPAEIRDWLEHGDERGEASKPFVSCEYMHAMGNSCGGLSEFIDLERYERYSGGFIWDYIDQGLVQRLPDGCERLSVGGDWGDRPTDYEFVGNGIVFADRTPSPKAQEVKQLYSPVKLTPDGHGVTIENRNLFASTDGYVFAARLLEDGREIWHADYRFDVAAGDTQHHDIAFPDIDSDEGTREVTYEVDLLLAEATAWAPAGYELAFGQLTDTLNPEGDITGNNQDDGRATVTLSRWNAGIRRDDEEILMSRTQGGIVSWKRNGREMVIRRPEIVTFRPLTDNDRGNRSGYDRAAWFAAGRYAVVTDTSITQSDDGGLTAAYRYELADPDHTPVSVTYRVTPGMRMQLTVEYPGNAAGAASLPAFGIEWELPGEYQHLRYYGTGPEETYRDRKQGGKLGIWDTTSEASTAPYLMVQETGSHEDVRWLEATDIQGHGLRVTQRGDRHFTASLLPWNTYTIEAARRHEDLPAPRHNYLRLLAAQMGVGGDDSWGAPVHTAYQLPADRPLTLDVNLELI
T2 sequence (D4BLG2 entry or part of it): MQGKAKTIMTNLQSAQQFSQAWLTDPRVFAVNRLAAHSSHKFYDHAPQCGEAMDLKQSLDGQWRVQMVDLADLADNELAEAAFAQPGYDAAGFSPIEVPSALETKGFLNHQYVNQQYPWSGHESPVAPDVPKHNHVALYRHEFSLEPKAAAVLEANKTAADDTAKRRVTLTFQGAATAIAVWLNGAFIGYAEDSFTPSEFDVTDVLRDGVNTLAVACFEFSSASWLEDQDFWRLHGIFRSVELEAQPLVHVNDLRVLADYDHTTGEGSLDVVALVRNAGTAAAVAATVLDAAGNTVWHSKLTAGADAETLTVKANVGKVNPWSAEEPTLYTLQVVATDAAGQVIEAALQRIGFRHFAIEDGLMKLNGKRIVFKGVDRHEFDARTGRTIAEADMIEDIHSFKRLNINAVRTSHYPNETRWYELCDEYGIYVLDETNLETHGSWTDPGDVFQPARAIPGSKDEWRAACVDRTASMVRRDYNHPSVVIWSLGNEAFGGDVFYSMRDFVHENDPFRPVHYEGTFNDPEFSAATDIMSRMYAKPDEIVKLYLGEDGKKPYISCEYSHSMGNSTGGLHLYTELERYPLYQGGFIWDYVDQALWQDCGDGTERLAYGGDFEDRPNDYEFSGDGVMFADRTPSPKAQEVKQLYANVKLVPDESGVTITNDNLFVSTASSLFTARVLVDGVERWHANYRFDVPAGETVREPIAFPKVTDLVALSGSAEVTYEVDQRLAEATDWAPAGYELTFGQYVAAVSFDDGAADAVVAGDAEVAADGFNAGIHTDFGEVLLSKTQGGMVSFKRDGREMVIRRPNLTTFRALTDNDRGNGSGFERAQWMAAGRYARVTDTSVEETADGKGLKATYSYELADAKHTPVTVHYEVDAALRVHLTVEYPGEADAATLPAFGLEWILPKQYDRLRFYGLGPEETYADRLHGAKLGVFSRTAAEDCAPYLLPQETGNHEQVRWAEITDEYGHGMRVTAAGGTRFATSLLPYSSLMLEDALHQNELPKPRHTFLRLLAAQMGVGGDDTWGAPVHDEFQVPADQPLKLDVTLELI

In general, Ki refers to a measure of affinity in units of concentration, obtained from inhibition or displacement. Low values mean higher affinity, high ones lower affinity. In the case of `OC[C@H]1OC(O)[C@H](O)[C@@H](O)[C@H]1O` (stereo partly drawn) [D-galactose], the Ki amounted to 34 ± 5 mM in experiment [1] and 15 ± 3 mM in experiment [2].
In experiment [1], `OC[C@H]1OC(O)[C@H](O)[C@@H](O)[C@@H]1O` (stereo partly drawn) [D-glucose] came in with a Ki of 37 ± 4 mM.

The values above are taken from PMC4121272, “Two β-Galactosidases from the Human Isolate Bifidobacterium breve DSM 20213: Molecular Cloning and Expression, Biochemical Characterization and Synthesis of Galacto-Oligosaccharides” (PLoS ONE, 2014).
